According to PMC8330742, “New benzothieno[2,3-c]pyridines as non-steroidal CYP17 inhibitors: design, synthesis, anticancer screening, apoptosis induction, and in silico ADME profile studies” (Journal of Enzyme Inhibition and Medicinal Chemistry, 2021):

How the values were obtained:
[1] = system: NCI-H460; test: NCI-60 SRB screen; assay type: cell-based, human; settings: Homo sapiens; NCI-H460; single dose 10^−5 M; read-out: Growth inhibition (%)
[2] = system: A549/ATCC; test: NCI-60 SRB screen; assay type: cell-based, human; settings: Homo sapiens, single dose 10^−5 M, read-out: Growth inhibition (%)
[3] = system: NCI-H226; test: NCI-60 SRB screen; assay type: cell-based, human; settings: Homo sapiens; NCI-H226; single dose 10^−5 M; read-out: Growth inhibition (%)
[4] = system: OVCAR-8; test: NCI-60 SRB screen; assay type: cell-based, human; settings: Homo sapiens; OVCAR-8; single dose 10^−5 M; read-out: Growth inhibition (%)
[5] = system: M14; test: NCI-60 SRB screen; assay type: cell-based, human; settings: Homo sapiens; M14; single dose 10^−5 M; read-out: Growth inhibition (%)
[6] = system: K-562; test: NCI-60 SRB screen; assay type: cell-based, human; settings: Homo sapiens, K562; K-562; single dose 10^−5 M; read-out: Growth inhibition (%)
[7] = system: HOP-62; test: NCI-60 SRB screen; assay type: cell-based, human; settings: Homo sapiens; HOP-62; single dose 10^−5 M; read-out: Growth inhibition (%)
[8] = system: LOX IMVI; test: NCI-60 SRB screen; assay type: cell-based, human; settings: Homo sapiens, single dose 10^−5 M, read-out: Growth inhibition (%)
[9] = system: panel of 60 cancer cell lines; test: NCI-60 SRB screen, mean or range over the panel; assay type: cell-based, human; settings: Homo sapiens; mean over the cell lines; single dose 10^−5 M; read-out: Mean growth inhibition (%)
[10] = system: SW-620; test: NCI-60 SRB screen; assay type: cell-based; settings: Homo sapiens; SW-620; single dose 10^−5 M; read-out: Growth inhibition (%)
[11] = system: MALME-3M; test: NCI-60 SRB screen; assay type: cell-based, human; settings: Homo sapiens, single dose 10^−5 M, read-out: Growth inhibition (%)
[12] = system: UACC-62; test: NCI-60 SRB screen; assay type: cell-based, human; settings: Homo sapiens; UACC-62; single dose 10^−5 M; read-out: Growth inhibition (%)
[13] = system: RXF 393; test: NCI-60 SRB screen; assay type: cell-based, human; settings: Homo sapiens; RXF 393; single dose 10^−5 M; read-out: Growth inhibition (%)
[14] = system: SK-MEL-5; test: NCI-60 SRB screen; assay type: cell-based, human; settings: Homo sapiens; SK-MEL-5; single dose 10^−5 M; read-out: Growth inhibition (%)
[15] = system: NCI-H322M; test: NCI-60 SRB screen; assay type: cell-based, human; settings: Homo sapiens, single dose 10^−5 M, read-out: Growth inhibition (%)
[16] = system: MOLT-4; test: NCI-60 SRB screen; assay type: cell-based; settings: Homo sapiens; MOLT-4; single dose 10^−5 M; read-out: Growth inhibition (%)
[17] = system: OVCAR-4; test: NCI-60 SRB screen; assay type: cell-based, human; settings: Homo sapiens; OVCAR-4; single dose 10^−5 M; read-out: Growth inhibition (%)
[18] = system: CCRF-CEM; test: NCI-60 SRB screen; assay type: cell-based; settings: Homo sapiens, single dose 10^−5 M, read-out: Growth inhibition (%)
[19] = system: ACHN; test: NCI-60 SRB screen; assay type: cell-based; settings: Homo sapiens, single dose 10^−5 M, read-out: Growth inhibition (%)
[20] = system: MDA-MB-435; test: NCI-60 SRB screen; assay type: cell-based; settings: Homo sapiens, MDA-MB-435, read-out: Growth inhibition (%)
[21] = system: NCI/ADR-RES; test: NCI-60 SRB screen; assay type: cell-based, human; settings: Homo sapiens, single dose 10^−5 M, read-out: Growth inhibition (%)
[22] = system: EKVX; test: NCI-60 SRB screen; assay type: cell-based, human; settings: Homo sapiens, single dose 10^−5 M, read-out: Growth inhibition (%)
[23] = system: UACC-257; test: NCI-60 SRB screen; assay type: cell-based, human; settings: Homo sapiens, UACC-257; UACC-275 (so in the source); single dose 10^−5 M; read-out: Growth inhibition (%)
[24] = system: HOP-92; test: NCI-60 SRB screen; assay type: cell-based, human; settings: Homo sapiens; HOP-92; single dose 10^−5 M; read-out: Growth inhibition (%)
[25] = system: SK-MEL-2; test: NCI-60 SRB screen; assay type: cell-based, human; settings: Homo sapiens; SK-MEL-2; single dose 10^−5 M; read-out: Growth inhibition (%)
[26] = system: NCI-H23; test: NCI-60 SRB screen; assay type: cell-based, human; settings: Homo sapiens; NCI-H23; single dose 10^−5 M; read-out: Growth inhibition (%)
[27] = system: SK-MEL-28; test: NCI-60 SRB screen; assay type: cell-based; settings: Homo sapiens; SK-MEL-28; single dose 10^−5 M; read-out: Growth inhibition (%)
[28] = system: HCT-116; test: NCI-60 SRB screen; assay type: cell-based, human; settings: Homo sapiens; HCT-116; single dose 10^−5 M; read-out: Growth inhibition (%)
[29] = system: CAKI-1; test: NCI-60 SRB screen; assay type: cell-based, human; settings: Homo sapiens; CAKI-1; single dose 10^−5 M; read-out: Growth inhibition (%)
[30] = system: OVCAR-3; test: NCI-60 SRB screen; assay type: cell-based, human; settings: Homo sapiens; OVCAR-3; single dose 10^−5 M; read-out: Growth inhibition (%)
[31] = system: NCI-H522; test: NCI-60 SRB screen; assay type: cell-based, human; settings: Homo sapiens; NCI-H522; single dose 10^−5 M; read-out: Growth inhibition (%)
[32] = system: IGROV1; test: NCI-60 SRB screen; assay type: cell-based, human; settings: Homo sapiens, IGROV-1; IGROV1; single dose 10^−5 M; read-out: Growth inhibition (%)
[33] = system: HCT-15; test: NCI-60 SRB screen; assay type: cell-based, human; settings: Homo sapiens; HCT-15; single dose 10^−5 M; read-out: Growth inhibition (%)
[34] = system: HCC-2998; test: NCI-60 SRB screen; assay type: cell-based, human; settings: Homo sapiens; HCC-2998; single dose 10^−5 M; read-out: Growth inhibition (%)
[35] = system: SR; test: NCI-60 SRB screen; assay type: cell-based; settings: Homo sapiens, single dose 10^−5 M, read-out: Growth inhibition (%)
[36] = system: TK-10; test: NCI-60 SRB screen; assay type: cell-based, human; settings: Homo sapiens; TK-10; single dose 10^−5 M; read-out: Growth inhibition (%)
[37] = system: KM12; test: NCI-60 SRB screen; assay type: cell-based, human; settings: Homo sapiens; KM12; single dose 10^−5 M; read-out: Growth inhibition (%)
[38] = system: SN12C; test: NCI-60 SRB screen; assay type: cell-based, human; settings: Homo sapiens, SN12C; SN 12 C; single dose 10^−5 M; read-out: Growth inhibition (%)
[39] = system: UO-31; test: NCI-60 SRB screen; assay type: cell-based, human; settings: Homo sapiens; UO-31; single dose 10^−5 M; read-out: Growth inhibition (%)
[40] = system: 786-0; test: NCI-60 SRB screen; assay type: cell-based; settings: Homo sapiens; 786-0; single dose 10^−5 M; read-out: Growth inhibition (%)
[41] = system: SF-295; test: NCI-60 SRB screen; assay type: cell-based, human; settings: Homo sapiens; SF-295; single dose 10^−5 M; read-out: Growth inhibition (%)
[42] = system: COLO 205; test: NCI-60 SRB screen; assay type: cell-based, human; settings: Homo sapiens; COLO 205; single dose 10^−5 M; read-out: Growth inhibition (%)
[43] = system: SF-268; test: NCI-60 SRB screen; assay type: cell-based, human; settings: Homo sapiens; SF-268; single dose 10^−5 M; read-out: Growth inhibition (%)
[44] = system: HL-60(TB); test: NCI-60 SRB screen; assay type: cell-based, human; settings: Homo sapiens; HL-60 (TB); single dose 10^−5 M; read-out: Growth inhibition (%)
[45] = system: HT-29; test: NCI-60 SRB screen; assay type: cell-based; settings: Homo sapiens; HT-29; single dose 10^−5 M; read-out: Growth inhibition (%)

## COc1ccc(C2NC(=O)C(Cl)c3c2sc2c(F)cccc32)c(OC)c1 (stereo not drawn) [Compound 4a, 4-Chloro-1-(2,4-Dimethoxyphenyl)-8-fluoro-1,2-dihydro[1]benzothieno [2,3-c]pyridine-3(4H)-one]
[1]
  inhibition at 10 µM: -1.09%
[2]
  inhibition at 10 µM: -4.25%
[3]
  inhibition at 10 µM: 13.6%
[4]
  inhibition at 10 µM: -0.71%
[5]
  inhibition at 10 µM: 3.25%
[6]
  inhibition at 10 µM: 12.5%
[7]
  inhibition at 10 µM: 9.42%
[8]
  inhibition at 10 µM: 4.84%
[9]
  inhibition at 10 µM: 1.85%
[10]
  inhibition at 10 µM: -0.16%
[11]
  inhibition at 10 µM: 9.21%
[12]
  inhibition at 10 µM: 10.9%
[13]
  inhibition at 10 µM: -0.71%
[14]
  inhibition at 10 µM: -1.74%
[15]
  inhibition at 10 µM: -4.72%
[16]
  inhibition at 10 µM: 4.69%
[17]
  inhibition at 10 µM: -1.63%
[18]
  inhibition at 10 µM: -1.02%
[19]
  inhibition at 10 µM: 12.4%
[20]
  inhibition at 10 µM: 8.55%
[21]
  inhibition at 10 µM: -5.94%
[22]
  inhibition at 10 µM: 2.22%
[23]
  inhibition at 10 µM: -12.8%
[24]
  inhibition at 10 µM: 9.64%
[25]
  inhibition at 10 µM: -23.2%
[26]
  inhibition at 10 µM: 1.72%
[27]
  inhibition at 10 µM: -1.74%
[28]
  inhibition at 10 µM: -2.4%
[29]
  inhibition at 10 µM: 27.5%
[30]
  inhibition at 10 µM: 1.99%
[31]
  inhibition at 10 µM: 8.58%
[32]
  inhibition at 10 µM: 10.3%
[33]
  inhibition at 10 µM: -9.27%
[34]
  inhibition at 10 µM: -7.97%
[35]
  inhibition at 10 µM: 36.6%
[36]
  inhibition at 10 µM: -25.5%
[37]
  inhibition at 10 µM: 3.86%
[38]
  inhibition at 10 µM: 9.45%
[39]
  inhibition at 10 µM: 40.3%
[40]
  inhibition at 10 µM: 4.93%
[41]
  inhibition at 10 µM: -2.33%
[42]
  inhibition at 10 µM: -16.7%
[43]
  inhibition at 10 µM: 9.64%
[44]
  inhibition at 10 µM: 0.73%
[45]
  inhibition at 10 µM: -10.5%
